Target: Bcl-2 (Homo sapiens, UniProt P10415)
Test: Homogeneous HTS assay for inhibitors of the Bcl-2 : Bak (72-87) BH3 domain interaction, fluorescence polarisation (2D-FIDA)
Format: binding
Settings: fluorescence polarisation, fluorescent labelled Bak BH3 domain derived peptide; read-out: IC50 [μM] Bcl-2
From the text: FIG. 1 is a schematic drawing of the Bcl-2: Bak (72-87) interaction assay based on fluorescence polarisation.
The homogeneous HTS assay for inhibitors of the Bcl-2 is shown schematically in FIG. 1. BH3 domain interaction is based on fluorescence polarisation. The inherent rotational diffusion of the Bak BH3 domain derived fluorescent labelled peptide decreases upon binding to Bc1-2. This shift in rotational diffusion is quantitated using the two-dimensional fluorescence intensity distribution analysis (2D-FIDA; Kask et al. 2000, Biophys. J. 78: 1703-1713).
Two different BH3 domain derived peptide ligands were synthesised and subsequently fluorescently labelled: • a 16mer peptide covering amino acids 72-87 of the Bak protein; this peptide had been used by Wang and co-workers and Holinger and coworkers in their Bcl-2 protein binding studies; Wang and co-workers reported an equilibrium binding constant KD of ˜0.2 μM to Bcl-2 protein; • peptide sequence: GQVGRQLAIIGDDINR—N (Wang et al. 2002, Proc. Natl. Acad. Sci. U.S.A. 97: 7124-7129; Holinger et al. 1999, J. Biol. Chem. 274: 13298-13304).

Bcl-2, sequence (P10415 whole entry, species assumed, the tested form may be a part): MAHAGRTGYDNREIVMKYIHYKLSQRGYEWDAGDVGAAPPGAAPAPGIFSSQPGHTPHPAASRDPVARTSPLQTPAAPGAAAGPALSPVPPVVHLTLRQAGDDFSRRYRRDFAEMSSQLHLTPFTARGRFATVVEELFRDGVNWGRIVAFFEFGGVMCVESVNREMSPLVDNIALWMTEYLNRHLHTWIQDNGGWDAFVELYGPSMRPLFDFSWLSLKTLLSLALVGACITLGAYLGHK

| Compound | IC50 |
| --- | --- |
| N=c1n(CCCOc2ccc(F)cc2)c2ccccc2n1Cc1cccc(Br)c1 [Compound 6, 1-(3-Bromo-benzyl)-3-[3-(4-fluoro-phenoxy)-propyl]-1,3-dihydro-benzoimidazol-2-ylideneamine] | 11 to 100 µM |
| CC(C)(C)c1ccc(Cn2c(=N)n(CC(O)COc3ccccc3)c3ccccc32)cc1 (stereo not drawn) [Compound 104, 1-[3-(4-tert-Butyl-benzyl)-2-imino-2,3-dihydro-benzoimidazol-1-yl]-3-phenoxy-propan-2-ol] | 11 to 100 µM |
| N=c1n(Cc2ccccc2)c2ccccc2n1CC(O)c1ccco1 (stereo not drawn) [Compound 91, 2-(3-Benzyl-2-imino-2,3-dihydro-benzoimidazol-1-yl)-1-furan-2-yl-ethanol] | > 100 µM |
| Cc1ccc2c(c1)n(Cc1ccc(Br)cc1)c(=N)n2CCCOc1ccc(F)cc1 [Compound 58, 3-(4-Bromo-benzyl)-1-[3-(4-fluoro-phenoxy)-propyl]-5-methyl-1,3-dihydro-benzoimidazol-2-ylideneamine] | 11 to 100 µM |
| CCCCCn1c(=N)n(CC(O)COc2ccccc2OC)c2ccccc21 (stereo not drawn) [Compound 98, 1-(2-Imino-3-pentyl-2,3-dihydro-benzoimidazol-1-yl)-3-(2-methoxy-phenoxy)-propan-2-ol] | 11 to 100 µM |
| N=c1n(Cc2ccc(Cl)cc2)c2ccccc2n1CC(O)COc1ccc(Cl)cc1 (stereo not drawn) [Compound 105, 1-[3-(4-Chloro-benzyl)-2-imino-2,3-dihydro-benzoimidazol-1-yl]-3-(4-chloro-phenoxy)-propan-2-ol] | 11 to 100 µM |
| COC(=O)c1ccc(OCCCn2c(=N)n(Cc3ccc(Br)cc3)c3ccccc32)cc1 [Compound 66, 4-{3-[3-(4-Bromo-benzyl)-2-imino-2,3-dihydro-benzoimidazol-1-yl]-propoxy}-benzoic acid methyl ester] | 11 to 100 µM |
| N=c1n(Cc2ccccc2)c2ccccc2n1CC1CCOCC1 [Compound 4, 1-Benzyl-3-(tetrahydro-pyran-4-ylmethyl)-1,3-dihydro-benzoimidazol-2-ylideneamine] | > 100 µM |
| COC(=O)c1cccc(Cn2c(=N)n(CCCOc3ccc(F)cc3)c3ccccc32)c1 [Compound 15, 3-{3-[3-(4-Fluoro-phenoxy)-propyl]-2-imino-2,3-dihydro-benzoimidazol-1-ylmethyl}-benzoic acid methyl ester] | < 10 µM |
| N=c1n(CCCOc2cccc(C(=O)O)c2)c2ccccc2n1Cc1cccc(Br)c1 [Compound 84, 3-{3-[3-(3-Bromo-benzyl)-2-imino-2,3-dihydro-benzoimidazol-1-yl]-propoxy}-benzoic acid] | 11 to 100 µM |
| Cc1ccccc1Cn1c(=N)n(CCCOc2ccccc2)c2ccccc21 [Compound 94, 1-(2-Methyl-benzyl)-3-(3-phenoxy-propyl)-1,3-dihydro-benzoimidazol-2-ylideneamine] | 11 to 100 µM |

More lines, now with the values ahead:

| IC50 | Compound |
| --- | --- |
| 11 to 100 µM | N=c1n(CCCOc2ccc(F)cc2)c2ccccc2n1Cc1ccc(CN2CCN(c3ccccc3)CC2)cc1 [Compound 40, 1-[3-(4-Fluoro-phenoxy)-propyl]-3-[4-(4-phenyl-piperazin-1-ylmethyl)-benzyl]-1,3-dihydro-benzoimidazol-2-ylideneamine] |
| < 10 µM | N=c1n(CCCOc2ccc(F)cc2)c2ccccc2n1Cc1ccc(N2CCN(Cc3ccccc3-c3ccccc3)CC2)nc1 [Compound 56, 1-[6-(4-Biphenyl-2-ylmethyl-piperazin-1-yl)-pyridin-3-ylmethyl]-3-[3-(4-fluoro-phenoxy)-propyl]-1,3-dihydro-benzoimidazol-2-ylideneamine] |
| < 10 µM | N=c1n(Cc2ccccc2)c2ccccc2n1Cc1ccc(N2CCN(Cc3ccccc3-c3ccccc3)CC2)cc1 [Compound 18, 1-Benzyl-3-[4-(4-biphenyl-2-ylmethyl-piperazin-1-yl)-benzyl]-1,3-dihydro-benzoimidazol-2-ylideneamine] |
| < 10 µM | N=c1n(CCCOc2ccc(F)cc2)c2ccccc2n1Cc1ccc(CN2CCN(Cc3ccccc3)CC2)cc1 [Compound 46, 1-[4-(4-Benzyl-piperazin-1-ylmethyl)-benzyl]-3-[3-(4-fluoro-phenoxy)-propyl]-1,3-dihydro-benzoimidazol-2-ylideneamine] |
| 11 to 100 µM | N=c1n(CCCOc2ccc(F)cc2)c2ccccc2n1Cc1ccc(CN2CCN(Cc3ccccc3-c3ccccc3)CC2)cc1 [Compound 49, 1-[4-(4-Biphenyl-2-ylmethyl-piperazin-1-ylmethyl)-benzyl]-3-[3-(4-fluoro-phenoxy)-propyl]-1,3-dihydro-benzoimidazol-2-ylideneamine] |
| < 10 µM | N=c1n(CCCOc2ccc(F)cc2)c2ccccc2n1Cc1ccccc1N1CCN(Cc2ccccc2-c2ccccc2)CC1 [Compound 38, 1-[2-(4-Biphenyl-2-ylmethyl-piperazin-1-yl)-benzyl]-3-[3-(4-fluoro-phenoxy)-propyl]-1,3-dihydro-benzoimidazol-2-ylideneamine] |
| < 10 µM | N=c1n(Cc2ccc(N3CCN(Cc4ccccc4-c4ccccc4)CC3)cc2)c2ccccc2n1CC(O)COc1ccc(F)cc1 (stereo not drawn) [Compound 83, 1-{3-[4-(4-Biphenyl-2-ylmethyl-piperazin-1-yl)-benzyl]-2-imino-2,3-dihydro-benzoimidazol-1-yl}-3-(4-fluoro-phenoxy)-propan-2-ol] |
| < 10 µM | CC1(C)CCC(c2ccc(Cl)cc2)=C(CN2CCN(c3ccc(Cn4c(=N)n(CCCOc5ccc(F)cc5)c5ccc(F)cc54)cc3)CC2)C1 [Compound 64, 3-(4-{4-[2-(4-Chloro-phenyl)-5,5-dimethyl-cyclohex-1-enylmethyl]-piperazin-1-yl}-benzyl)-5-fluoro-1-[3-(4-fluoro-phenoxy)-propyl]-1,3-dihydro-benzoimidazol-2-ylideneamine] |
| < 10 µM | N=c1n(Cc2cccc(N3CCN(Cc4ccccc4-c4ccccc4)CC3)c2)c2ccccc2n1CC(O)COc1ccc(F)cc1 (stereo not drawn) [Compound 82, 1-{3-[3-(4-Biphenyl-2-ylmethyl-piperazin-1-yl)-benzyl]-2-imino-2,3-dihydro-benzoimidazol-1-yl}-3-(4-fluoro-phenoxy)-propan-2-ol] |
| 11 to 100 µM | N=c1n(Cc2ccccc2)c2ccccc2n1CC(O)COc1ccccc1 (stereo not drawn) [Compound 78, 1-(3-Benzyl-2-imino-2,3-dihydro-benzoimidazol-1-yl)-3-phenoxy-propan-2-ol] |
| 11 to 100 µM | N=c1n(CCCOc2ccc(F)cc2)c2ccccc2n1Cc1ccc(CN2CCN(c3ccccc3Cl)CC2)cc1 [Compound 44, 1-{4-[4-(2-Chloro-phenyl)-piperazin-1-ylmethyl]-benzyl}-3-[3-(4-fluoro-phenoxy)-propyl]-1,3-dihydro-benzoimidazol-2-ylideneamine] |
| < 10 µM | N=c1n(CCCOc2ccc(F)cc2)c2ccccc2n1Cc1ccc(N2CCN(Cc3ccccc3Cl)CC2)cc1 [Compound 20, 1-{4-[4-(2-Chloro-benzyl)-piperazin-1-yl]-benzyl}-3-[3-(4-fluoro-phenoxy)-propyl]-1,3-dihydro-benzoimidazol-2-ylideneamine] |
| < 10 µM | N=c1n(CCCOc2ccc(F)cc2)c2ccccc2n1Cc1ccc(N2CCN(Cc3ccccc3-c3ccccc3)CC2)cc1 [Compound 25, 1-[4-(4-Biphenyl-2-ylmethyl-piperazin-1-yl)-benzyl]-3-[3-(4-fluoro-phenoxy)-propyl]-1,3-dihydro-benzoimidazol-2-ylideneamine] |

Source: patent US8759520B2, “Compounds for treating cancer” (Boehringer Ingelheim International GmbH, priority 2008, dated 2014)
